≈ marks a conversion by molar mass, not a printed value.
How the values were obtained:
Type in all cases: functional
[1] = tested on: Staphylococcus aureus; experiment: Antibacterial activity against Staphylococcus aureus 26003 by CLSI agar microdilution method
[2] = tested on: Streptococcus pneumoniae; experiment: Antibacterial activity against Streptococcus pneumoniae 31002 by CLSI agar microdilution method
[3] = tested on: Staphylococcus; experiment: Antibacterial activity against Staphylococcus albus 26101 by CLSI agar microdilution method
[4] = tested on: Enterococcus faecium; experiment: Antibacterial activity against Enterococcus faecium 32220 by CLSI agar microdilution method
[5] = tested on: Streptococcus; experiment: Antibacterial activity against Streptococcus gamma 32206 by CLSI agar microdilution method
[6] = tested on: Staphylococcus epidermidis; experiment: Antibacterial activity against Staphylococcus epidermidis 26069 by CLSI agar microdilution method
[7] = tested on: Staphylococcus aureus; experiment: microbe, parasite or virus in culture; conditions: ATCC 25923
Description: Antibacterial activity against methicillin-sensitive Staphylococcus aureus ATCC 25923 by CLSI agar microdilution method

[8] = tested on: Staphylococcus aureus; experiment: microbe, parasite or virus in culture; conditions: ATCC 33591
Description: Antibacterial activity against methicillin-resistant Staphylococcus aureus ATCC 33591 by CLSI agar microdilution method

[9] = tested on: Enterococcus faecalis; experiment: microbe, parasite or virus in culture; conditions: ATCC 29212
Description: Antibacterial activity against vancomycin-sensitive Enterococcus faecalis ATCC 29212 by CLSI agar microdilution method

[10] = tested on: Enterococcus faecalis; experiment: microbe, parasite or virus in culture; conditions: ATCC 51299
[11] = tested on: Enterococcus faecium; experiment: Antibacterial activity against vancomycin-sensitive Enterococcus faecium ATCC 35667 by CLSI agar microdilution method
[12] = tested on: Enterococcus faecium; experiment: Antibacterial activity against vancomycin-resistant Enterococcus faecium MEFA 0039 by CLSI agar microdilution method
[13] = tested on: Streptococcus pneumoniae; experiment: Antibacterial activity against penicillin-intermediate Streptococcus pneumoniae ATCC 49619 by CLSI broth microdilution method
[14] = tested on: Streptococcus pneumoniae; experiment: Antibacterial activity against penicillin-resistant Streptococcus pneumoniae MSPN 0003 by CLSI broth microdilution method
[15] = tested on: Enterococcus faecium; experiment: Antibacterial activity against vancomycin-sensitive Enterococcus faecium ATCC 35667 by CLSI agar microdilution method relative to LYV07ww01
[16] = tested on: Enterococcus faecalis; experiment: Antibacterial activity against vancomycin-resistant Enterococcus faecalis ATCC 51299 by CLSI agar microdilution method relative to vancomycin
[17] = tested on: Enterococcus faecium; experiment: Antibacterial activity against vancomycin-resistant Enterococcus faecium MEFA 0039 by CLSI agar microdilution method relative to vancomycin

Compound | MIC [1] [µg/mL] | MIC [2] [µg/mL] | MIC [3] [µg/mL] | MIC [4] [µg/mL] | MIC [5] [µg/mL] | MIC [6] [µg/mL] | MIC [7] [µg/mL] | MIC [8] [µg/mL] | MIC [9] [µg/mL] | MIC [10] [µg/mL] | MIC [11] [µg/mL] | MIC [12] [µg/mL] | MIC [13] [µg/mL] | MIC [14] [µg/mL] | fold change (FC) [15] | fold change (FC) [16] | fold change (FC) [17]
CN[C@H](CC(C)C)C(=O)N[C@H]1C(=O)N[C@@H](CC(N)=O)C(=O)N[C@H]2C(=O)N[C@H]3C(=O)N[C@H](C(=O)N[C@@H](C(=O)O)c4cc(O)cc(O)c4-c4cc3ccc4O)[C@H](O[C@H]3C[C@](C)(N)[C@H](O)[C@H](C)O3)c3ccc(c(Cl)c3)Oc3cc2cc(c3O[C@@H]2O[C@H](CO)[C@@H](O)[C@H](O)[C@H]2O[C@H]2C[C@](C)(NCc3cccc(Br)c3)[C@H](O)[C@H](C)O2)Oc2ccc(cc2Cl)[C@H]1O | 0.78 (≈ 0.443 µM) | 0.78 (≈ 0.443 µM) | 0.78 (≈ 0.443 µM) | 0.78 (≈ 0.443 µM) | 3.13 (≈ 1.78 µM) | > 25 | 1 (≈ 0.568 µM) | 0.5 (≈ 0.284 µM) | 0.25 (≈ 0.142 µM) | 0.5 (≈ 0.284 µM) | ≤ 0.031 | 2 (≈ 1.14 µM) | ≤ 0.031 | ≤ 0.031 | 4 | 4 | 
CN[C@H](CC(C)C)C(=O)N[C@H]1C(=O)N[C@@H](CC(N)=O)C(=O)N[C@H]2C(=O)N[C@H]3C(=O)N[C@H](C(=O)N[C@@H](C(=O)O)c4cc(O)cc(O)c4-c4cc3ccc4O)[C@H](O[C@H]3C[C@](C)(N)[C@H](O)[C@H](C)O3)c3ccc(c(Cl)c3)Oc3cc2cc(c3O[C@@H]2O[C@H](CO)[C@@H](O)[C@H](O)[C@H]2O[C@H]2C[C@](C)(NCc3ccccc3Cl)[C@H](O)[C@H](C)O2)Oc2ccc(cc2Cl)[C@H]1O | 1.56 (≈ 0.909 µM) | 0.78 (≈ 0.454 µM) | 3.13 (≈ 1.82 µM) | 1.56 (≈ 0.909 µM) | 1.56 (≈ 0.909 µM) | 6.25 (≈ 3.64 µM) | 1 (≈ 0.582 µM) | 0.5 (≈ 0.291 µM) | 0.5 (≈ 0.291 µM) | 0.5 (≈ 0.291 µM) | 0.25 (≈ 0.146 µM) | 8 (≈ 4.66 µM) | ≤ 0.031 | 0.125 (≈ 0.0728 µM) |  | 4 | 4
CN[C@H](CC(C)C)C(=O)N[C@H]1C(=O)N[C@@H](CC(N)=O)C(=O)N[C@H]2C(=O)N[C@H]3C(=O)N[C@H](C(=O)N[C@@H](C(=O)O)c4cc(O)cc(O)c4-c4cc3ccc4O)[C@H](O[C@H]3C[C@](C)(N)[C@H](O)[C@H](C)O3)c3ccc(c(Cl)c3)Oc3cc2cc(c3O[C@@H]2O[C@H](CO)[C@@H](O)[C@H](O)[C@H]2O[C@H]2C[C@](C)(N)[C@H](O)[C@H](C)O2)Oc2ccc(cc2Cl)[C@H]1O | 0.39 (≈ 0.245 µM) | 0.098 (≈ 0.0615 µM) | 0.78 (≈ 0.49 µM) | 3.13 (≈ 1.97 µM) | 0.78 (≈ 0.49 µM) | > 25 | 0.25 (≈ 0.157 µM) | 0.125 (≈ 0.0785 µM) | 0.25 (≈ 0.157 µM) | 0.5 (≈ 0.314 µM) | 0.125 (≈ 0.0785 µM) | 8 (≈ 5.02 µM) | 0.063 (≈ 0.0396 µM) | 0.125 (≈ 0.0785 µM) |  |  | 
CN[C@H](CC(C)C)C(=O)N[C@H]1C(=O)N[C@@H](CC(N)=O)C(=O)N[C@H]2C(=O)N[C@H]3C(=O)N[C@H](C(=O)N[C@@H](C(=O)O)c4cc(O)cc(O)c4-c4cc3ccc4O)[C@H](O[C@H]3C[C@](C)(N)[C@H](O)[C@H](C)O3)c3ccc(c(Cl)c3)Oc3cc2cc(c3O[C@@H]2O[C@H](CO)[C@@H](O)[C@H](O)[C@H]2O[C@H]2C[C@](C)(NCc3ccc(OC)cc3)[C@H](O)[C@H](C)O2)Oc2ccc(cc2Cl)[C@H]1O | 0.78 (≈ 0.455 µM) | 0.78 (≈ 0.455 µM) | 1.56 (≈ 0.911 µM) | 1.56 (≈ 0.911 µM) | 1.56 (≈ 0.911 µM) | 3.13 (≈ 1.83 µM) | 1 (≈ 0.584 µM) | 0.5 (≈ 0.292 µM) | 0.5 (≈ 0.292 µM) | 0.5 (≈ 0.292 µM) | 0.125 (≈ 0.073 µM) | 4 (≈ 2.34 µM) | 0.063 (≈ 0.0368 µM) | 0.125 (≈ 0.073 µM) |  | 4 | 4
CN[C@H](CC(C)C)C(=O)N[C@H]1C(=O)N[C@@H](CC(N)=O)C(=O)N[C@H]2C(=O)N[C@H]3C(=O)N[C@H](C(=O)N[C@@H](C(=O)O)c4cc(O)cc(O)c4-c4cc3ccc4O)[C@H](O[C@H]3C[C@](C)(N)[C@H](O)[C@H](C)O3)c3ccc(c(Cl)c3)Oc3cc2cc(c3O[C@@H]2O[C@H](CO)[C@@H](O)[C@H](O)[C@H]2O[C@H]2C[C@](C)(NCc3ccc(Br)cc3)[C@H](O)[C@H](C)O2)Oc2ccc(cc2Cl)[C@H]1O | 1.56 (≈ 0.886 µM) | 1.56 (≈ 0.886 µM) | 1.56 (≈ 0.886 µM) | 1.56 (≈ 0.886 µM) | 6.25 (≈ 3.55 µM) | 6.25 (≈ 3.55 µM) | 1 (≈ 0.568 µM) | 0.5 (≈ 0.284 µM) | 0.5 (≈ 0.284 µM) | 0.5 (≈ 0.284 µM) | ≤ 0.031 | 2 (≈ 1.14 µM) | ≤ 0.031 | ≤ 0.031 | 4 | 4 | 
CN[C@H](CC(C)C)C(=O)N[C@H]1C(=O)N[C@@H](CC(N)=O)C(=O)N[C@H]2C(=O)N[C@H]3C(=O)N[C@H](C(=O)N[C@@H](C(=O)O)c4cc(O)cc(O)c4-c4cc3ccc4O)[C@H](O[C@H]3C[C@](C)(N)[C@H](O)[C@H](C)O3)c3ccc(c(Cl)c3)Oc3cc2cc(c3O[C@@H]2O[C@H](CO)[C@@H](O)[C@H](O)[C@H]2O[C@H]2C[C@](C)(NCc3ccc(C(C)C)cc3)[C@H](O)[C@H](C)O2)Oc2ccc(cc2Cl)[C@H]1O | 1.56 (≈ 0.905 µM) | 0.78 (≈ 0.452 µM) | 1.56 (≈ 0.905 µM) | 1.56 (≈ 0.905 µM) | 1.56 (≈ 0.905 µM) | 6.25 (≈ 3.62 µM) | 1 (≈ 0.58 µM) | 0.5 (≈ 0.29 µM) | 0.5 (≈ 0.29 µM) | 0.5 (≈ 0.29 µM) | ≤ 0.031 | 2 (≈ 1.16 µM) | ≤ 0.031 | ≤ 0.031 | 4 | 4 | 
CN[C@H](CC(C)C)C(=O)N[C@H]1C(=O)N[C@@H](CC(N)=O)C(=O)N[C@H]2C(=O)N[C@H]3C(=O)N[C@H](C(=O)N[C@@H](C(=O)O)c4cc(O)cc(O)c4-c4cc3ccc4O)[C@H](O[C@H]3C[C@](C)(N)[C@H](O)[C@H](C)O3)c3ccc(c(Cl)c3)Oc3cc2cc(c3O[C@@H]2O[C@H](CO)[C@@H](O)[C@H](O)[C@H]2O[C@H]2C[C@](C)(NCc3ccccc3Br)[C@H](O)[C@H](C)O2)Oc2ccc(cc2Cl)[C@H]1O | 1.56 (≈ 0.886 µM) | 0.195 (≈ 0.111 µM) | 1.56 (≈ 0.886 µM) | 1.56 (≈ 0.886 µM) | 0.39 (≈ 0.221 µM) | > 25 | 1 (≈ 0.568 µM) | 0.5 (≈ 0.284 µM) | 0.25 (≈ 0.142 µM) | 0.5 (≈ 0.284 µM) | 0.125 (≈ 0.071 µM) | 4 (≈ 2.27 µM) | ≤ 0.031 | 0.063 (≈ 0.0358 µM) |  | 4 | 4
CCCCN[C@@]1(C)C[C@H](O[C@H]2[C@H](Oc3c4cc5cc3Oc3ccc(cc3Cl)[C@@H](O[C@H]3C[C@](C)(N)[C@H](O)[C@H](C)O3)[C@@H]3NC(=O)[C@H](NC(=O)[C@@H]5NC(=O)[C@H](CC(N)=O)NC(=O)[C@H](NC(=O)[C@@H](CC(C)C)NC)[C@H](O)c5ccc(c(Cl)c5)O4)c4ccc(O)c(c4)-c4c(O)cc(O)cc4[C@H](C(=O)O)NC3=O)O[C@H](CO)[C@@H](O)[C@@H]2O)O[C@@H](C)[C@H]1O | 0.78 (≈ 0.473 µM) | 0.39 (≈ 0.237 µM) | 1.56 (≈ 0.946 µM) | > 25 | 1.56 (≈ 0.946 µM) | > 25 | 0.5 (≈ 0.303 µM) | 0.5 (≈ 0.303 µM) | 0.5 (≈ 0.303 µM) | 1 (≈ 0.607 µM) | 0.25 (≈ 0.152 µM) | 32 (≈ 19.4 µM) | 0.063 (≈ 0.0382 µM) | 0.125 (≈ 0.0758 µM) |  |  | 

Reference: ChEMBL document CHEMBL1909570, “Synthesis and antibacterial activity of N4-mono alkyl derivatives of novel glycopeptide LYV07ww01” (2011)
